Here are results for 2 substances from paper PMC6973020, “Quinoline‐Conjugated Ruthenacarboranes: Toward Hybrid Drugs with a Dual Mode of Action” (Chemmedchem, 2019).

A value given as a limit tells only on which side of the number the result lay.

As a reminder, the IC50 is the midpoint of a concentration-inhibition curve.

Data set [1] concerns murine microglial cell line BV‐2. As to the kind of experiment: MTT cell viability assay, BV‐2. Conditions: 72 h. The format is cell-based, mouse. An excerpt: (§1) Thus, care must be taken when comparing their biological activities with those of our previous studies, even with the same cell line, because the covalent vs. non‐covalent combination of drugs might imply different mechanisms of action in the cell.44 Here, we studied the in vitro activity of ruthenacarborane 3, i. e. free acid, and its 8‐hydroxyquinolyl (4) and 4‐{(7‐chloroquinolin‐4‐yl)oxy}butanol‐1‐yl (5) esters, against a panel of cancer cell lines (B16 mouse melanoma, A375 human skin melanoma, MCF‐7 human breast adenocarcinoma, LN229 human glioblastoma, U251 human glioma). Human fibroblast cell line MRC‐5, murine microglial cell line BV‐2 as well as peritoneal exudate cells (Mph), were chosen as models for non‐malignant cells. […] On the other side, we wanted to assess the reproducibility of the viability data, under either controlled (with BSA) or uncontrolled (without BSA) conditions, in two sets of independent assays. […] Cells were exposed to 3–5 for 72 h, after which cell viability was determined via 3‐(4,5‐dimethylthiazol‐2‐yl)‐2,5‐diphenyltetrazolium bromide (MTT) and crystal violet (CV) assays, in parallel (Table 2). Cisplatin was also tested as reference.
Preparation of drug solutions. […] Stock solution of cisplatin was prepared in DMF (10 mM) immediately before use. A stock solution of BSA in PBS was prepared at 1.28 mM concentration, and stored at 4 °C in the dark. […] Alternatively, 3 or 4 (DMSO stock solution) were added to the BSA solution in PBS, always with a 10 : 1 molar ratio of BSA to ruthenacarborane. […]
Colorimetric assays for cellular viability. […] The absorbance was measured with an automated microplate reader at λmax 540 nm, with the reference λmax 670 nm. Untreated cells or cells treated only with BSA (control) were also measured, as reference for BSA‐free and BSA‐containing drug formulations, respectively. […] Cell viability is expressed as percentage (%) relative to control (untreated cultures).58 Experiments were run in three independent replicates. […]

Data set [2] concerns A375 human skin melanoma. As to the kind of experiment: Crystal violet (CV) cell viability assay, A375. The format is cell-based. Conditions: 72 h.
Description: as §1
(§2) Preparation of drug solutions. […] Stock solution of cisplatin was prepared in DMF (10 mM) immediately before use. A stock solution of BSA in PBS was prepared at 1.28 mM concentration, and stored at 4 °C in the dark. […] Alternatively, 3 or 4 (DMSO stock solution) were added to the BSA solution in PBS, always with a 10 : 1 molar ratio of BSA to ruthenacarborane. The BSA−ruthenacarborane solutions were incubated 0.5–1 h at room temperature, then diluted with cell culture medium to the desired final concentrations. Final concentrations of 3 and 4 were the same as for the BSA‐free formulation. Final DMSO was 0.02–0.5 vol %.
(§3) Colorimetric assays for cellular viability. […] For counting the number of attached (viable) cells, cells were fixed with 4 % (w/v) paraformaldehyde for 10 min at room temperature, and subsequently stained for 15 min with […] crystal violet (CV) solution. Cells were then washed with tap water, dried in air, and the CV dye was dissolved in 33 % (w/v) acetic acid solution. For the detection of mitochondrial respiration, cells were cultivated in MTT staining solution (0.5 mg mL^−1) for approximately 1 h. The dye was then discarded, and the formed formazan (purple) was dissolved in DMSO. The absorbance was measured with an automated microplate reader at λmax 540 nm, with the reference λmax 670 nm. Untreated cells or cells treated only with BSA (control) were also measured, as reference for BSA‐free and BSA‐containing drug formulations, respectively. […] Cell viability is expressed as percentage (%) relative to control (untreated cultures).58 Experiments were run in three independent replicates. […]

Data set [3] relates to U251 human glioma. In words: MTT cell viability assay, U251. Format: cell-based. As to conditions: 72 h.
Description: as §1, §2, §3
On the technique in general: Tetrazolium dyes change colour on reduction, which living cells bring about.

Data set [4] can be described thus: Solubility in organic solvents (qualitative). Format: physicochemical.

For “closo ‐[3‐(η^6‐p‐Cymene)‐1‐(quinolin‐8‐yl‐acetate)‐3,1,2‐RuC2B9H10] [Compound 4]”, the IC50 is 8.7 ± 0.1 µM in data set [1], 14.9 ± 2.1 µM in data set [2] and 46.2 ± 1.9 µM in data set [3]. Further, the “solubility in organic solvents (in words)” value in data set [4] is “soluble in dichloromethane, chloroform, acetone and DMSO”.
As to “closo‐ [Compound 3, closo‐ [3‐(η^6‐p‐Cymene)‐1‐(CH2COOH)‐3,1,2‐RuC2B9H10]]”, the results for the IC50 in data set [1], in data set [2] and in data set [3] were 64.7 ± 0.7 µM, 18.7 ± 1.8 µM and greater than 100 µM, respectively. Further, in data set [4], the “solubility in organic solvents (in words)” value is “soluble in acetone, THF, acetonitrile and DMSO, moderately soluble in chloroform and dichloromethane”.
